For one series, the system named is VeroE6-eGFP cells. The settings on record: from a previous report, measured under identical conditions; cited from earlier work.
For series [1], the system named is SARS-CoV-2 (BetaCov/Belgium/GHB-03021/2020 B.1 lineage A). The settings on record: VeroE6-eGFP cells; from a previous report, measured under identical conditions; cited from earlier work.
A further series deals with T1, SARS-CoV-2 M^pro (Severe acute respiratory syndrome coronavirus 2, UniProt P0DTD1).
T1 construct: main protease (M^pro, also known as Nsp5 and 3C-like protease); purchased Beyotime P0312S
Nature of the series: biochemical. The settings on record: FRET; for IC50: substrate Dabcyl-[…]-Edans, mean ± SD of three independent measurements; for inhibition at 1 µM: single concentration of 1 μM, read-out: inhibition rate.

The test system of series [2] is SARS-CoV-2 (BetaCov/Belgium/GHB-03021/2020 B.1 lineage A). The settings on record: […]; mean ± SD of two independent replicates.
The test system of a further series is SARS-CoV-2 delta strains. Also on record: method as in PMID 39072488. The settings on record: delta strain, Vero E6 cells, viral copy numbers in supernatant by qRT-PCR; cited from earlier work.
The next series is described as follows: in vitro. The settings on record: African green monkey.
The test system of series [3] is SARS-CoV-2 (BetaCov/Belgium/GHB-03021/2020 B.1 lineage A). Nature of the series: microbe, parasite or virus in culture. The settings on record: Severe acute respiratory syndrome coronavirus 2, 96 h, mean ± SD of two independent replicates.

Structures are written as SMILES. Read-outs that look alike come from different tables or passages of the source.

What is called EC50 is the midpoint of the concentration-response curve. Take `CC(C)(C)[C@H](NC(=O)C(F)(F)F)C(=O)N1C[C@H]2[C@@H]([C@H]1C(=O)N[C@H](C#N)C[C@@H]1CCNC1=O)C2(C)C` [Nirmatrelvir]: in the series on VeroE6-eGFP cells, the CC50 is greater than 100000 nM. Besides, the EC50 in series [1] was 123 ± 34 nM.

Usually IC50 stands for the concentration that gives 50% inhibition. Broadly, the inhibition is the change of the read-out against control, counted positive when it falls. `CNC(=O)c1cc(Br)cc([N+](=O)[O-])c1N[C@@H]1CCCC[C@@H]1NC(=O)c1cc(=O)[nH]c2ccccc12` [Compound A9, N-((1S,2R)-2-((4-bromo-2-(methylcarbamoyl)-6-nitrophenyl)amino)cyclohexyl)-2-oxo-1,2-dihydroquinoline-4-carboxamide] yielded an IC50 at SARS-CoV-2 M^pro of 154 ± 6 nM. Also, the inhibition at 1 µM on SARS-CoV-2 M^pro is 92%. Also, the EC50 entry in series [2] was “micromolar or submicromolar range”; in the series on SARS-CoV-2 delta strains it was 849 nM; in series [3] it was 180 ± 20 nM. In “in vitro”, this molecule gave a CC50 at 5 days greater than 100000 nM.

Consider `CNC(=O)c1cc(Br)cc([N+](=O)[O-])c1N[C@@H]1CCCC[C@@H]1NC(=O)c1cccnc1` [Compound A5, N-((1S,2R)-2-((4-bromo-2-(methylcarbamoyl)-6-nitrophenyl)amino)cyclohexyl)nicotinamide], for which, on SARS-CoV-2 M^pro, the IC50 is 1050 ± 67 nM and the inhibition at 1 µM came out at 53.7%. For the same molecule, the CC50 at 5 days in “in vitro” is greater than 100000 nM. The EC50 in series [3] lay within 2010 to 6050 nM.

For `CNC(=O)c1cc(Br)cc([N+](=O)[O-])c1N[C@@H]1CCCC[C@@H]1NC(=O)c1cncc(O)c1` [Compound A6, N-((1S,2R)-2-((4-bromo-2-(methylcarbamoyl)-6-nitrophenyl)amino)cyclohexyl)-5-hydroxynicotinamide], at SARS-CoV-2 M^pro, the IC50 came out at 1080 ± 23 nM and the inhibition at 1 µM was 55.5%. The molecule further returned a CC50 at 5 days in “in vitro” greater than 100000 nM.

Source of the values: paper PMC11765572 (International Journal of Molecular Sciences, 2025).
